Assay results as given in patent US7906520B2, “Methods for treating pain” (The General Hospital Corporation, priority 2003, dated 2011).

Experiments:
GTP cyclohydrolase I = conditions: cited from earlier work; for potency as GTP cyclohydrolase I inhibitor relative to oxidized pterins: more potent than oxidized pterins; for Ki: read-out: Ki, noncompetitive inhibitor of GTP cyclohydrolase I
SNI model = assay: SNI model, L-NAME versus DAHP; type: in vivo
Procedure: In this figure, closed circles represent nNOS knockout mice with DAHP; open circles, nNOS knock out mice with vehicle; closed triangles, wild type mice with DAHP; and open triangles, wild type mice with vehicle. […] In this figure, closed triangles represent L-NAME administration; open circles, L-NAME+DAHP administration; closed circles, DAHP administration; and open triangles, vehicle administration. L-NAME was administered at 25 mg/kg, i.p., single dose, and DAHP was administered at 120 mg/kg, i.p., single dose. The antinociceptive efficacy of this high L-NAME dose is weaker (about 50%) than that of a moderate dose of DAHP.

sepiapterin reductase = conditions: cited from earlier work
[1] = tested on: CFA-induced paw inflammation; assay: CFA model of inflammatory pain: Hargreaves test and paw weight; type: in vivo, rat; conditions: NAS 50 mg/kg i.p.
Procedure: FIGS. 11A-11E are a series of graphs showing the effect of DHAP on thermal hyperalgesia in the CFA model which is a model for inflammatory pain. […] On the left end of the graph, two doses of DAHP (180 mg/kg i.p.) were injected, the first 30 minutes before injection of CFA into the hindpaw, the second 4 hours after CFA (indicated with arrows D1 and D2). On the right, a single dose (dotted arrow D1) of DAHP (180 mg/kg i.p.) was injected 24 h after induction of paw inflammation without any treatment during the first 24 h following CFA injection. […] In FIGS. 11C-11D, the effects of systemically administered DAHP (180 mg/kg i.p. single dose; 11C) are compared with the effects of a single intrathecal dose (1 mg/kg i.t.; 11D) which was administered via a lumbar spinal catheter. In both cases, treatment was started 24 hours after CFA injection into the hindpaw. Because of slightly different baseline levels (11C compared with 11D) effects of DAHP after i.p. and i.t. treatment are additionally presented as percentage change of paw withdrawal latency (FIG. 11E) to allow for a direct comparison of both routes of administration.
FIG. 12 is a bar graph showing the increase of the paw weight of the inflamed paw compared with the contralateral paw. Paw weight was determined 48 hours following CFA injection. The increase of the paw weight is a measure for the inflammatory paw edema and therefore allows assessment of paw inflammation.
FIGS. 15A and 15B show the effect of the sepiapterin reductase inhibitor, N-acetyl-serotonin (NAS) on thermal hyperalgesia in the CFA model. The paw withdrawal latency (PWL) to radiant heat (Hargreaves test) is a measure for the heat sensitivity. NAS treatment (single dose of 50 mg/kg i.p.) was started 24 hours after CFA injection into the hindpaw. Data are presented as percentage change of the PWL compared with the PWL of the non-inflamed contralateral paw. […] Paw weight was determined 48 hours following CFA injection. The increase of the paw weight is a measure for the inflammatory paw edema.
Hypersensitivity was induced using the CFA model of paw inflammation. In these experiments, BH4 was injected at time “zero” after measurement of baseline paw withdrawal latency.

[2] = tested on: SNI model of neuropathic pain; assay: Spared nerve injury (SNI) model of neuropathic pain, von Frey and acetone tests; type: in vivo
Procedure: FIGS. 8A-8D represent a series of graphs showing the effect of DAHP on nociceptive behavior in the SNI model of neuropathic pain. Figures on the left show the threshold to mechanical stimuli applied with von Frey hairs (von Frey threshold). Figures on the right show the duration of paw licking, shaking and lifting following acetone application to the paw as a measure for cold allodynia. In FIG. 8A, rats were treated with DAHP (180 mg/kg/d i.p.) for three days starting three days after surgery (early treatment). Nociceptive behavior was assessed daily before and after drug injection. In FIG. 8B, the treatment period was extended to five days (180 mg/kg/d i.p.) starting three days after surgery and pain behavior was assessed daily before and after drug injection and once every second day for an additional week after stopping the daily drug injections. In FIG. 8C, treatment with DAHP (180 mg/kg/d i.p. for 5 days) was started 17 days after surgery i.e. in the chronic phase without any treatment in the early phase. Nociceptive behavior was assessed once daily 3 h after drug injection. In FIG. 8D, animals received a continuous spinal infusion of DAHP (6 mg/kg/d) for 14 days. The infusion was started directly after surgery. Nociceptive behavior was assessed once daily.
FIGS. 16A-16D show the effects of systemic (16A) and intrathecal (16B) treatment with methotrexate (MTX) on the nociceptive behavior in the SNI model of neuropathic pain. […] In FIG. 16A MTX (0.2 mg/kg/d) was injected i.p. once daily starting 5 days after SNI surgery. Nociceptive behavior was assessed once daily three hours after drug injection. In FIG. 16B, MTX was administered as continuous intrathecal infusion (0.1 mg/kg/d for 14 days) starting right after SNI surgery. Nociceptive behavior was assessed once daily. FIGS. 16C and 16D show the body weight gain of animals during systemic (16C) and intrathecal (16D) MTX treatment. Determination of the weight gain was used to assess general well-being and potential toxic effects of MTX.
In this graph, closed triangles represent vehicle, i.p.; open triangles represent DAHP at 90 mg/kg/day, i.p.; open squares represent DAHP at 180 mg/kg/day, i.p.; and open circles represent DAHP at 270 mg/kg/day, i.p.
All procedures were performed in accordance with Massachusetts General Hospital animal care regulations. Adult male Sprague Dawley rats (200-300 g) were anesthetized with halothane. For the sciatic nerve transection (axotomy), the left sciatic nerve was exposed at the mid thigh level, ligated with 3/0 silk, and sectioned distally. The wound was sutured in two layers, and the animals were allowed to recover. For SNI the tibial and peroneal branch of the sciatic nerve were ligated and transected whereas the sural nerve was spared. For CCI, the sciatic nerve was loosely ligated with dexon 4/0 (three ligatures) and for the spinal ligation model the L5 spinal segmental nerve was ligated.

[3] = systemically administered, low doses; cited from earlier work

**Q.** With `C[C@H](O)[C@H](O)[C@@H]1CNc2nc(N)[nH]c(=O)c2N1` [6S-BH4] as the compound, how does the “effectiveness relative to BH4” value (GTP cyclohydrolase I; feedback inhibition of GTPCH) read?
**A.** more than one order of magnitude less effective

**Q.** Which “potency as GTP cyclohydrolase I inhibitor relative to oxidized pterins” value (GTP cyclohydrolase I) does the source give for `C[C@H](O)[C@H](O)C1=Nc2c(nc(N)[nH]c2=O)NC1` [7,8-dihydro-L-Biopterin] here?
**A.** approximately 12 times

**Q.** What about the Ki (GTP cyclohydrolase I) of the same compound?
**A.** 14.4 µM

**Q.** With `COC(=O)[C@@H](N)CCCNC(=N)N[N+](=O)[O-]` [L-NAME, N^G-Nitro-L-arginine-methyl ester] as the compound, how does the “effect of L-NAME co-injection on efficacy of DAHP” value (SNI model; L-NAME 25 mg/kg i.p. + DAHP 120 mg/kg i.p.) read?
**A.** does not further increase the efficacy of DAHP

**Q.** What about the “antinociceptive efficacy relative to a moderate dose of DAHP” value (SNI model; L-NAME 25 mg/kg i.p. single dose, weaker than DAHP) of the same compound?
**A.** about 50%

**Q.** Which results are given for `C[C@H](O)C(=O)C1=Nc2c(nc(N)[nH]c2=O)NC1` [L-Sepiapterin]?
**A.** potency as GTP cyclohydrolase I inhibitor relative to oxidized pterins (GTP cyclohydrolase I): 12 times; IC50 (GTP cyclohydrolase I; read-out: IC50, GTP cyclohydrolase I inhibitor): 12.7 ± 1.8 µM

**Q.** For `O=C(CCl)NCCc1ccc(O)c(O)c1` [N-Chloroacetyldopamine], which “potency as sepiapterin reductase inhibitor relative to NAS” value (sepiapterin reductase) is on record?
**A.** increased potency

**Q.** Which “potency as sepiapterin reductase inhibitor relative to NAS” value (sepiapterin reductase) does the source give for `O=C(CCl)NCCc1c[nH]c2ccc(O)cc12` [N-Chloroacetylserotonin] here?
**A.** increased potency

**Q.** For `COCC(=O)NCCc1c[nH]c2ccc(O)cc12` [N-Methoxyacetylserotonin], which “potency as sepiapterin reductase inhibitor relative to NAS” value (sepiapterin reductase) is on record?
**A.** increased potency

**Q.** With `CC(=O)NCCc1c[nH]c2ccc(O)cc12` [NAS, N-acetyl-serotonin] as the compound, how does the “CFA-induced inflammatory paw edema” value [1] read?
**A.** no effect

**Q.** What about the thermal hyperalgesia ([1]; 24 hours after CFA) of the same compound?
**A.** reduction of thermal hyperalgesia

**Q.** For `C[C@H](O)[C@H](O)[C@H]1CNc2nc(N)[nH]c(=O)c2N1` [Tetrahydro-L-biopterin], which Ki (GTP cyclohydrolase I) is on record?
**A.** 15.7 µM

**Q.** With `Nc1nc2nc[nH]c2c(=O)[nH]1` [guanine] as the compound, how does the “GTPCH inhibitory potency relative to DAHP” value (GTP cyclohydrolase I; higher potency than DAHP) read?
**A.** approximately 10 fold

**Q.** Which “pain in response to mechanical and cold allodynia” value ([2]; MTX 0.2 mg/kg/d i.p. or 0.1 mg/kg/day continuous lumbar spinal delivery) does the source give for `CN(Cc1cnc2nc(N)nc(N)c2n1)c1ccc(C(=O)N[C@@H](CCC(=O)O)C(=O)O)cc1` [methotrexate] here?
**A.** reduction in pain

**Q.** And the “acute toxicity (body weight change over time)” value ([2]; MTX systemic or intrathecal)?
**A.** absence of detectable acute toxicity

**Q.** And the “blood brain barrier penetration” value [3]?
**A.** does not penetrate the blood brain barrier
